Experimental findings from patent US11389465B2, “Phosphorylated hexaacyl disaccharides (PHADs) for treating or preventing infections” (VANDERBILT UNIVERSITY, priority 2017, dated 2022) are described below.

One series relates to Pseudomonas aeruginosa. Briefly: Pseudomonas burn wound infection in mice, MPLA given before inoculation (FIG. 1). Type of series: in vivo. Particulars: MPLA 20 μg. How it is done:
FIG. 1. MPLA treatment improves host resistance to Pseudomonas burn wound infection. Mice exposed to a 20% full thickness burn wound were treated with MPLA on days 3 and 4 post-burn and were inoculated with 1×10^8 Pseudomonas aeruginosa in the caudad (area 3) portion of the burn wound. A. Wounds were excised 48 hours after inoculation, sectioned into 3 segments (areas 1-3) and homogenized. Bacterial colony forming units (cfu) were determined by culture on agar plates. B. At 4-6 days after infection, wound and lungs were harvested, homogenized and cultured to measure Pseudomonas cfu. C. Survival was determined after Pseudomonas infection. *p<0.05 compared to vehicle.
Consequently, MPLA is currently employed by Glaxo Smith Kline as a component of the FDA-approved ASO4 vaccine adjuvant system (27, 28). […] It was also shown that total wound bacteria and dissemination of Pseudomonas from the burn wound to the lungs was diminished in mice treated with MPLA (FIG. 1B).

In another series the test system is C. albicans. The experiment in a line: Systemic (intravenous) C. albicans infection in MPLA-primed mice (FIG. 2). Type of series: in vivo. As to conditions: MPLA 20 μg; intravenous C. albicans 1×10^8 CFU. The procedure:
FIG. 2. MPLA induces resistance to S. aureus and C. albicans infection. A) WT BALB/c mice were injected with intravenous MPLA (20 μg/mouse) or vehicle one and two days prior to intravenous inoculation with intravenous 10^8 cfu S. aureus or 10^8 cfu C. albicans. B) Kaplan Meier survival curve of vehicle- and MPLA-primed mice. (n=12 mice/group) after S. aureus inoculation. C) Core (rectal) body temperature assessed daily after S. aureus inoculation. D) S. aureus cfu per gram of tissue recoverable from whole spleen, lung, and kidney in vehicle and MPLA-primed mice at 3 days after S. aureus inoculation. E) Concentration of serum IL-6 2 hours after S. aureus inoculation or vehicle. F) Concentration of serum BUN 3 days after S. aureus inoculation or vehicle. G) Kaplan Meier survival curve of vehicle- and MPLA-primed mice. (n=12 mice/group) after intravenous 10^8 cfu C. albicans inoculation. H) Core (rectal) body temperature after C. albicans inoculation. Data shown as mean+/−SEM. For Kaplan-Meier plots *, p<0.05 via log-rank Mantel-Cox test. Otherwise, *, p<0.05 as determined by ANOVA with Tukey's post-hoc multiple comparison test.
MPLA is also effective in improving survival in models of systemic S. aureus and C. albicans infection. Mice treated with MPLA (20 μg) after a 20% cutaneous burn received intravenous challenge with S. aureus or C. albicans (1×10^8 CFU) on day 5 post-burn (FIG. 2).

Series [1] can be described thus: Physiological response of burned sheep to MPLA infusion (FIG. 7). The format is in vivo. How it is done: FIG. 7. MPLA infusion causes transient physiologic changes in burned sheep. Sheep received 20% total body surface area burn followed 24 hours later by vehicle or MPLA ([…]) infusion. Core body temperature, hemodynamics and pulmonary mechanics were measured for 2 hours after initiation of MPLA or vehicle infusions. […] A transient increase in heart rate (HR) and decrease in mean arterial blood pressure (MAP) were also observed in MPLA-treated sheep.
Sheep were instrumented and received a 20% cutaneous burn. At 24 hours after the burn procedure, MPLA (5 ug/kg) was infused in 10 ml of endotoxin-free lactated Ringer's solution over 10 minutes. The sheep developed a transient 1° C. increase in core temperature at 1 hour after the start of infusion (FIG. 7).

The test system of another series is Staphylococcus aureus. The experiment in a line: Systemic S. aureus infection after MPLA or PHADs (FIG. 8). Type of series: in vivo, mice. As to conditions: 20 μg/mouse on day 0 and day 1; S. aureus 1×10^8 intravenously on day 2. The procedure:
FIG. 8. PHADs induce bacterial clearance and promote survival post systemic S. aureus infection. […] (B) In one set of experiments, mice were euthanized at 72 hours post-infection and lung, spleen, and kidney tissues were harvested to measure bacterial burden. (C) In a separate set of experiments, mice underwent the same treatment with MPLA or PHADs, followed by infection with S. aureus. However, this group is monitored for 14 days to assess for survival. *p<0.05 compared to vehicle. N=13-16/group in the 3 day clearance experiments, performed in quadruplicate, and n=9-10/group, performed in triplicate.
In addition, mice were analyzed for survival after intravenous Staphylococcus aureus infection with treatment of MPLA or PHADs. At Day 0, mice were treated with vehicle, MPLA or PHADs (20 μg/mouse). At Day 1, mice were treated with vehicle, MPLA or PHADs (20 μg/mouse). At Day 2, mice were infected with Staphylococcus aureus (1×10^8 intravenously) and followed for survival.

The subject of series [2] is Bone marrow derived macrophages (BMDMs). The experiment in a line: Metabolic reprogramming of bone marrow derived macrophages by MPLA (FIG. 11). Type of series: cell-based. Particulars: 1 μg/mL MPLA for 24 hours. The procedure: FIG. 11. MPLA drives persistent and dynamic metabolic reprogramming in macrophages. A) Bone marrow derived macrophages (BMDMs) were primed with 1 μg/mL MPLA for 24 hours, washed, and rested for 3 days (3 dp macrophages). These macrophages were compared to BMDMs stimulated with 1 μg/mL MPLA for 24 hours prior to assessment (24 hr macrophages) and untreated BMDMs (control). B) Glycolysis stress test of macrophages as determined by the Seahorse Xf^e96. C) Maximal extracellular acidification rate (ECAR) derived after the addition of oligomycin in the glycolysis stress test D) Glucose consumed from BMDMs over 24 hours, as determined by glucose concentration in cell-free medium subtracted by cell-containing medium. E) Lactate produced by BMDMs over 24 hours, as determined by lactate in cell-containing medium subtracted by cell free medium. F) Basal oxygen consumption rate (OCR) determined after the addition of glucose in the glycolysis stress test. G) Mitochondrial stress test of BMDMs as determined by the Seahorse Xfi96. H) Maximal oxidative rate derived after the addition of FCCP in the mitochondrial stress test. I) Intracellular ATP from BMDMs as determined by luminescence assay. Some BMDMs were exposed to 10 mM 2-DG or IlpM oligomycin for 3 hours prior to the assay. J) MitoTracker Green staining of BMDMs as determined by flow cytometry. K) Mitochondrial DNA (mtDNA)/nuclear DNA (nucDNA) as determined by qPCR. L) Succinate dehydrogenase (SDHA), citrate synthase (CS), and β-actin as determined by western blot. All bands shown derived from the same samples. […] Densitometry of SDHA and CS compared to β-actin derived from ImageJ shown. All experiments replicated at least twice. Data shown as mean+/−SEM. *, p<0.05 as determined by ANOVA with Tukey's post-hoc multiple comparison analysis.

[3] abbreviates: MPLA 5 ug/kg, 24 hours after 20% burn.
The mark [4] stands for this setting: MPLA 2.5 micrograms/kg (FIG. 7 legend).

As to Monophosphoryl Lipid A [MPLA], the “total wound bacteria and dissemination of Pseudomonas from the burn wound to the lungs” value in the series with Pseudomonas aeruginosa (20% burn, 4-6 days after infection) is “diminished”. In the series on Pseudomonas aeruginosa (20% burn, Pseudomonas wound infection), the survival result is “One hundred”. The “spread of bacteria within the burn wound (areas 1 and 2)” value in the series on Pseudomonas aeruginosa (20% cutaneous burn, wound inoculated in area 3) is “decreased spread of bacteria within the burn wound”. This substance yielded a survival in the series with C. albicans of 40%. In addition, in series [1] (setting [3]), the “cardiac index, mean arterial pressure, central venous pressure, stroke volume, systemic vascular resistance, peak and pause airway pressures and PaO2/FiO2 ratio” value is given as “not significantly changed”; the “heart rate and pulmonary artery pressure” value is recorded as “not significantly altered”. Further, the “increase in core temperature” value in series [1] (MPLA 5 ug/kg, 24 hours after 20% burn, transient, at 1 hour after start of infusion) was found to be 1 °C. Moreover, in series [1] (setting [4]), the “cardiac index (CI), central venous pressure (CVP) and systemic vascular resistance (SVRI)” value was “minimally impacted”; the “mean arterial blood pressure (MAP)” value was “significantly decreased at 45 and 60 minutes”; the “time of peak core body temperature after initiation of infusion” value is 75 min. For the same substance, the core body temperature entry in series [1] (MPLA 2.5 micrograms/kg (FIG. 7 legend), from 45 minutes, still elevated at 2 hours) is given as “increased core body temperature”. Also, the “heart rate (HR)” value in series [1] (MPLA 2.5 micrograms/kg (FIG. 7 legend), returned to baseline at 90 minutes) was “significantly increased at 30-75 minutes”. In series [1] (burned sheep, infusion over 10 minutes), this substance returned a safe dose of 5 µg/kg. Besides, the survival result with Staphylococcus aureus is “improved survival”. In addition, in series [2], the ATP production result is listed as “enhances ATP production”; the “macrophage metabolism: glycolysis and oxygen consumption” value is “increased glycolysis and oxygen consumption”; the mitochondrial biogenesis entry is on record as “enhances”.
